Laboratory results as given in US10945771B2, “Azabicyclo[4.1.0]heptane allosteric modulators of the M4 muscarinic acetylcholine receptor” (Merck Sharp & Dohme Corp., priority 2017, dated 2021).

Molecular target: T1, human M4 muscarinic acetylcholine receptor (Homo sapiens, UniProt P08173)
T1 construct: expressed in transfected cells; host or cells: CHO-K1
T1 sequence (P08173 1-479): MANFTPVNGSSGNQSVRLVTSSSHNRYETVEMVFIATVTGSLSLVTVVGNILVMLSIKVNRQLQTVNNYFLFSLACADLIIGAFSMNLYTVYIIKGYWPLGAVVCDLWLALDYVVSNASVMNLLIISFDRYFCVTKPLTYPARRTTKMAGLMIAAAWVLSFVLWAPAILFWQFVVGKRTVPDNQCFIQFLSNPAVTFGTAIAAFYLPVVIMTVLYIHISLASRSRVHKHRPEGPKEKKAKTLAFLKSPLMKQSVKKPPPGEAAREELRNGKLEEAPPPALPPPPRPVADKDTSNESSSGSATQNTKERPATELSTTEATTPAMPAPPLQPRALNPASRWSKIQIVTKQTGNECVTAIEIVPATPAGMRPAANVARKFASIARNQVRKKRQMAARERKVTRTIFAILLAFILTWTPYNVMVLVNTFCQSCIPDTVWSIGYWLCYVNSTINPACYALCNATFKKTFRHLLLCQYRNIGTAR
Assay: human FLIPR-based M4 PAM assay (Ca2+ dye fluorescence, CHO-K1 cells with human M4 receptor and Gαqi5)
Type: cell-based
Details: inflection point (IP) of dose response curve, FLIPR Tetra, acetylcholine at 20% of maximum response
Description: In a typical experiment the M4 muscarinic acetylcholine receptor modulating activity of the compounds of the present invention was determined in accordance with the following experimental method. CHO-K1 cells stably transfected with human M4 receptor and chimeric G-protein Gαqi5 (Coward P, et al., Analytical Biochemistry, 270:242-248 (1999)) are thawed from liquid N2 storage, resuspended in growth medium, plated in black, clear bottom 384 well plates, and incubated 16-20 hours at 37° C., 5% CO2. On the day of assay, growth medium is removed, the cells are washed 2 times with wash buffer, and cells are incubated in dye loading buffer at 37° C., 5% CO2 for ˜1 hour. Following dye loading the cell plates are placed in a FLIPR Tetra instrument and while monitoring dye fluorescence (excitation […]), 10 uL of test substance at increasing concentrations is added, and fluorescence values are recorded for 4 min. Next, 10 uL of acetylcholine is added (final concentration calculated so as to achieve 20% of the maximum acetycholine response), and the fluorescence reading is continued for 3.5 min. In some cases, a third addition of acetylcholine (final concentration calculated to achieve 70% of the maximal acetylcholine response) is performed. The resulting dose response curves are fit to a 4 parameter logistic equation and the final result is determined as the inflection point (IP) of the curve
CHO-K1 cells stably transfected with human M4 receptor and chimeric G-protein Gαqi5 are thawed from liquid N2 storage, resuspended in growth medium, plated in black, clear bottom 384 well plates, and incubated 16-20 hours at 37° C., 5% CO2.
On the day of assay, growth medium is removed, the cells are washed 2 times with wash buffer, and cells are incubated in dye loading buffer at 37° C., 5% CO2 for ˜1 h. Following dye loading the cell plates are placed in a FLIPR Tetra instrument and while monitoring dye fluorescence ([…]), 10 uL of test substance at increasing concentrations is added, and fluorescence values are recorded for 4 min. Next, 10 uL of acetylcholine is added (final concentration calculated so as to achieve 20% of the maximum acetycholine response), and the fluorescence reading is continued for 3.5 min. In some cases, a third addition of acetylcholine (final concentration calculated to achieve 70% of the maximal acetylcholine response) is performed.

Row | SMILES | EC50 [nM]
1 | Cc1c(N2CCC(OCC3(C)CC3)C3CC32)nc2c(c1C)C(=O)NC2 (single isomer, unassigned) [Example 2, 3,4-dimethyl-2-(5-((1-methylcyclopropyl)methoxy)-2-azabicyclo[4.1.0]heptan-2-yl)-6,7-dihydro-5H-pyrrolo[3,4-b]pyridin-5-one] | 1320
2 | Cc1cc2c(nc1N1CCC(OCC3(C)CC3)C3CC31)CNC2=O (single isomer, unassigned) [Example 4, 3-methyl-2-(5-((1-methylcyclopropyl)methoxy)-2-azabicyclo[4.1.0]heptan-2-yl)-6,7-dihydro-5H-pyrrolo[3,4-b]pyridin-5-one] | 1670
3 | Cc1c(N2CCC(OCC3(C)CC3)C3CC32)nc2c(c1C)C(=O)N(C)C2CO (single isomer, unassigned) [Example 8, 7-(hydroxymethyl)-3,4,6-trimethyl-2-(5-((1-methylcyclopropyl)methoxy)-2-azabicyclo[4.1.0]heptan-2-yl)-6,7-dihydro-5H-pyrrolo[3,4-b]pyridin-5-one] | 3000
4 | CCc1cc2c(nc1N1CCC(OCC3(C)CC3)C3CC31)C(CO)N(C)C2=O (single isomer, unassigned) [Example 9, 3-ethyl-7-(hydroxymethyl)-6-methyl-2-(5-((1-methylcyclopropyl)methoxy)-2-azabicyclo[4.1.0]heptan-2-yl)-6,7-dihydro-5H-pyrrolo[3,4-b]pyridin-5-one] | 8090
5 | CCc1cc2c(nc1N1CCC(OCC3(C)CC3)C3CC31)C(CO)N(C)C2=O (single isomer, unassigned) [Example 11, 3-ethyl-7-(hydroxymethyl)-6-methyl-2-(5-((1-methylcyclopropyl)methoxy)-2-azabicyclo[4.1.0]heptan-2-yl)-6,7-dihydro-5H-pyrrolo[3,4-b]pyridin-5-one] | 742
6 | Cc1c(N2CCC(OCC3(C)CC3)C3CC32)nc2c(c1C)C(=O)N(CCC#N)C2 (single isomer, unassigned) [Example 16, 3-(3,4-dimethyl-2-(5-((1-methylcyclopropyl)methoxy)-2-azabicyclo[4.1.0]heptan-2-yl)-5-oxo-5,7-dihydro-6H-pyrrolo[3,4-b]pyridin-6-yl)propanenitrile] | 1530
7 | Cc1c(N2CCC(OCC3(C)CC3)C3CC32)nc2c(c1C)C(=O)N(CCS(C)(=O)=O)C2 (single isomer, unassigned) [Example 18] | 20200
8 | Cc1c(N2CCC(OCC3(C)CC3)C3CC32)nc2c(c1C)C(=O)N(CC(C)(C)O)C2 (single isomer, unassigned) [Example 20, 6-(2-hydroxy-2-methylpropyl)-3,4-dimethyl-2-(5-((1-methylcyclopropyl)methoxy)-2-azabicyclo[4.1.0]heptan-2-yl)-6,7-dihydro-5H-pyrrolo[3,4-b]pyridin-5-one] | 12000
9 | Cc1c(N2CCC(OCC3(C)CC3)C3CC32)nc2c(c1C)C(=O)N1CCC(O)CC21 (single isomer, unassigned) [Example 23, 9-hydroxy-3,4-dimethyl-2-(5-((1-methylcyclopropyl)methoxy)-2-azabicyclo[4.1.0]heptan-2-yl)-8,9,10,10a-tetrahydropyrido[2,3-a]indolizin-5(7H)-one] | 2350
10 | Cc1c(N2CCC(OCC3(C)CC3)C3CC32)nc2c(c1C)C(=O)N1CCC(O)CC21 (single isomer, unassigned) [Example 24, 9-hydroxy-3,4-dimethyl-2-(5-((1-methylcyclopropyl)methoxy)-2-azabicyclo[4.1.0]heptan-2-yl)-8,9,10,10a-tetrahydropyrido[2,3-a]indolizin-5(7H)-one] | 2440

The next compounds have a lower EC50 than those just listed; values first:

Row | EC50 [nM] | SMILES
11 | 711 | Cc1c(N2CCC(OCC3(C)CC3)C3CC32)nc2c(c1C)C(=O)N(C)C2CO (single isomer, unassigned) [Example 6, 7-(hydroxymethyl)-3,4,6-trimethyl-2-(5-((1-methylcyclopropyl)methoxy)-2-azabicyclo[4.1.0]heptan-2-yl)-6,7-dihydro-5H-pyrrolo[3,4-b]pyridin-5-one]
12 | 659 | Cc1c(N2CCC(OCC3(C)CC3)C3CC32)nc2c(c1C)C(=O)N(C)C2CO (single isomer, unassigned) [Example 7, 7-(hydroxymethyl)-3,4,6-trimethyl-2-(5-((1-methylcyclopropyl)methoxy)-2-azabicyclo[4.1.0]heptan-2-yl)-6,7-dihydro-5H-pyrrolo[3,4-b]pyridin-5-one]
13 | 506 | CCc1cc2c(nc1N1CCC(OCC3(C)CC3)C3CC31)C(CO)N(C)C2=O (single isomer, unassigned) [Example 12, 3-ethyl-7-(hydroxymethyl)-6-methyl-2-(5-((1-methylcyclopropyl)methoxy)-2-azabicyclo[4.1.0]heptan-2-yl)-6,7-dihydro-5H-pyrrolo[3,4-b]pyridin-5-one]
14 | 157 | Cc1c(N2CCC(OCC3(C)CC3)C3CC32)nc2c(c1C)C(=O)N1CCC(O)CC21 (single isomer, unassigned) [Example 21, 9-hydroxy-3,4-dimethyl-2-(5-((1-methylcyclopropyl)methoxy)-2-azabicyclo[4.1.0]heptan-2-yl)-8,9,10,10a-tetrahydropyrido[2,3-a]indolizin-5(7H)-one]
15 | 117 | Cc1c(N2CCC(OCC3(C)CC3)C3CC32)nc2c(c1C)C(=O)N(C)C2CO (single isomer, unassigned) [Example 5, 7-(hydroxymethyl)-3,4,6-trimethyl-2-(5-((1-methylcyclopropyl)methoxy)-2-azabicyclo[4.1.0]heptan-2-yl)-6,7-dihydro-5H-pyrrolo[3,4-b]pyridin-5-one]
16 | 116 | Cc1c(N2CCC(OCC3(C)CC3)C3CC32)nc2c(c1C)C(=O)N1CCC(O)CC21 (single isomer, unassigned) [Example 22, 9-hydroxy-3,4-dimethyl-2-(5-((1-methylcyclopropyl)methoxy)-2-azabicyclo[4.1.0]heptan-2-yl)-8,9,10,10a-tetrahydropyrido[2,3-a]indolizin-5(7H)-one]
17 | 103 | Cc1c(N2CCC(OCC3(C)CC3)C3CC32)nc2c(c1C)C(=O)N(CCS(C)(=O)=O)C2 (single isomer, unassigned) [Example 17, 3,4-dimethyl-2-(5-((1-methylcyclopropyl)methoxy)-2-azabicyclo[4.1.0]heptan-2-yl)-6-(2-(methylsulfonyl)ethyl)-6,7-dihydro-5H-pyrrolo[3,4-b]pyridin-5-one]
18 | 50 | Cc1c(N2CCC(OCC3(C)CC3)C3CC32)nc2c(c1C)C(=O)N(CCC#N)C2 (single isomer, unassigned) [Example 15, 3-(3,4-dimethyl-2-(5-((1-methylcyclopropyl)methoxy)-2-azabicyclo[4.1.0]heptan-2-yl)-5-oxo-5,7-dihydro-6H-pyrrolo[3,4-b]pyridin-6-yl)propanenitrile]
19 | 47 | CCc1cc2c(nc1N1CCC(OCC3(C)CC3)C3CC31)C(CO)N(C)C2=O (single isomer, unassigned) [Example 10, 3-ethyl-7-(hydroxymethyl)-6-methyl-2-(5-((1-methylcyclopropyl)methoxy)-2-azabicyclo[4.1.0]heptan-2-yl)-6,7-dihydro-5H-pyrrolo[3,4-b]pyridin-5-one]
20 | 40 | Cc1cc2c(nc1N1CCC(OCC3(C)CC3)C3CC31)CNC2=O (single isomer, unassigned) [Example 3, 3-methyl-2-(5-((1-methylcyclopropyl)methoxy)-2-azabicyclo[4.1.0]heptan-2-yl)-6,7-dihydro-5H-pyrrolo[3,4-b]pyridin-5-one]
21 | 39 | Cc1c(N2CCC(OCC3(C)CC3)C3CC32)nc2c(c1C)C(=O)NC2 (single isomer, unassigned) [Example 1, 3,4-dimethyl-2-(5-((1-methylcyclopropyl)methoxy)-2-azabicyclo[4.1.0]heptan-2-yl)-6,7-dihydro-5H-pyrrolo[3,4-b]pyridin-5-one]
